Measurements published in PubChem BioAssay (NCI).
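Five compound concentrations were applied to cells in 96-well plates for 48 hours; endpoints were derived by simple linear interpolation of the resulting dose-response curve. At the GI50, growth is halved. At the TGI there is no net growth.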

Experiments:
Experiment in all cases: NCI tumour cell line growth inhibition, 48 h
SK-MEL-2 melanoma = system: SK-MEL-2 melanoma
RPMI-8226 leukemia = system: RPMI-8226 leukemia
SW-620 colon = system: SW-620 colon
SF-268 CNS = system: SF-268 CNS
UACC-257 melanoma = system: UACC-257 melanoma
HCT-116 colon = system: HCT-116 colon
CAKI-1 renal = system: CAKI-1 renal

Row | Structure (SMILES) | TGI (SK-MEL-2 melanoma) [µM] | TGI (RPMI-8226 leukemia) [µM] | TGI (SW-620 colon) [µM] | TGI (SF-268 CNS) [µM] | TGI (UACC-257 melanoma) [µM] | TGI (HCT-116 colon) [µM] | TGI (CAKI-1 renal) [µM] | GI50 (SK-MEL-2 melanoma) [nM] | GI50 (RPMI-8226 leukemia) [nM] | GI50 (UACC-257 melanoma) [nM] | GI50 (HCT-116 colon) [nM]
1 | Nc1nc(Nc2ccc(Cl)cc2)sc1C(=O)c1cc2ccccc2oc1=O | 75.8 | > 100 | > 100 | > 100 | > 100 | > 100 |  |  |  |  | 
2 | COc1cccc(/C=N/n2c(-c3ccccc3)n[nH]c2=O)c1 | > 100 | > 100 | > 100 | 39.8 | > 100 | > 100 | > 100 |  |  |  | 
3 | CCOC(=O)c1sc2nc(SC)nc(Nc3ccc(OC)c(OC)c3)c2c1N | > 100 | > 100 | > 100 | 80.9 | > 100 | > 100 | > 100 |  |  |  | 
4 | Nc1nc(Cl)cc(Nc2ccc3c(c2)CCC3)n1 | > 100 | 65.1 | > 100 | > 100 | > 100 | > 100 | > 100 |  |  |  | 
5 | O=C(c1nsc(Cl)c1Cl)N1CCCCC1 |  | > 100 | > 100 | > 100 | > 100 | > 100 | > 100 |  |  |  | 
6 | C=CCSc1nn(CC=C)cc2ncnc1-2 | > 100 | > 100 | > 100 | > 100 | > 100 | > 100 | > 100 |  |  |  | 
7 | O=S(=O)(Nc1ccccc1S(=O)(=O)c1ccccc1)c1ccccc1 | > 100 | > 100 | > 100 | > 100 | > 100 | > 100 | > 100 |  |  |  | 
8 | Clc1ccc2c(NCCNc3nc(-c4ccccc4)cc(-c4ccccc4)n3)ccnc2c1 | 3.62 | 5.1 |  |  | 3.98 | 3.43 |  | 1840 | 2190 | 2030 | 1760
9 | OCCOCCO[P+]1(OCCOCCO)n2c3ccc2C(c2ccccc2)=C2C=CC(=N2)C(c2ccccc2)=c2ccc(n21)=C(c1ccccc1)C1=NC(=C3c2ccccc2)C=C1 |  | 0.0896 | 1.31 |  | 0.124 | 0.358 | 3.79 |  |  |  | 
10 | COC(=O)c1ccccc1CC1Cc2cc3c(cc2C1)CCC3 | 43.9 | 40.1 | > 100 | > 100 | 73.1 | 83.1 | > 100 |  |  |  | 
11 | Cc1sc(N=Nc2c(O)[nH]c3ccccc23)nc1-c1ccccc1 | 49.5 |  | 71.4 | 38.5 | 47.8 | 35.1 | 32.8 |  |  |  | 
12 | COC(CNC(=O)C(C)NC(=O)C(C)NC(=O)c1ccccc1)OC (stereo unspecified) | > 100 | > 100 | > 100 | > 100 | > 100 | > 100 | > 100 |  |  |  | 
13 | O=C(O)/C(=C\c1ccccc1)Cc1ccccc1 | > 100 | > 100 | > 100 | > 100 | > 100 | > 100 | > 100 |  |  |  | 
14 | CC(=O)CN=C(C)NNc1ccc([N+](=O)[O-])cc1[N+](=O)[O-] | > 100 | > 100 | > 100 | > 100 |  | > 100 | > 100 |  |  |  | 
15 | CC1C(c2ccccc2O)c2cc3c(cc2OC1N1CCCC1)OCO3 (stereo unspecified) | 80 | 57.5 | 44.4 | > 100 | 92.5 | 43.1 | > 100 |  |  |  | 
16 | Cc1cc2c3c(ccc4ncc(c43)CN2c2ccc(NS(C)(=O)=O)cc2)[nH]1 | > 100 | 55.3 | > 100 | 51.5 | > 100 | 44.1 | 64.5 |  |  |  | 
17 | CC(=O)Oc1ccc(-c2cc3ccccc3oc2=O)cc1OC(C)=O | > 100 | > 100 | > 100 | > 100 | > 100 | > 100 |  |  |  |  | 
18 | CS(=O)(=O)C(=Cc1ccccc1Cl)S(C)(=O)=O | > 100 | > 100 | > 100 | > 100 | > 100 | > 100 | > 100 |  |  |  | 
19 | Cn1ncc2c(NCCc3ccccc3)nc(Cl)nc21 | 36.7 | 47.4 | 89.1 | > 100 | 12.3 | > 100 | 91.4 |  |  |  | 
20 | CC(C)CCNC(=O)c1ccc(CNC(=O)/C=C/c2ccc(-c3ccccc3[N+](=O)[O-])o2)cc1 | > 100 | > 100 | > 100 | 63.1 | > 100 | > 100 | > 100 |  |  |  | 
21 | Nc1nc(Cl)c2ncn(Cc3ccccc3CCl)c2n1 | 80.6 | > 100 | 11.8 | 14.5 | 38.2 | > 100 | 20.4 |  |  |  | 

Row | Structure (SMILES) | TGI (SK-MEL-2 melanoma) [µM] | TGI (RPMI-8226 leukemia) [µM] | TGI (SW-620 colon) [µM] | TGI (SF-268 CNS) [µM] | TGI (UACC-257 melanoma) [µM] | TGI (HCT-116 colon) [µM] | TGI (CAKI-1 renal) [µM] | GI50 (SK-MEL-2 melanoma) [nM] | GI50 (RPMI-8226 leukemia) [nM] | GI50 (UACC-257 melanoma) [nM] | GI50 (HCT-116 colon) [nM]
22 | COc1cc(/C=C2\NC(=O)N(/C=C3\C(=O)Oc4ccccc4C3=O)C2=O)ccc1O | > 100 | > 100 | > 100 | > 100 | > 100 | > 100 | > 100 |  |  |  | 
23 | O=[N+]([O-])c1cc(Cl)ccc1S(=O)(=O)c1ccccc1 | 53.8 | > 100 | > 100 | > 100 | > 100 | > 100 | > 100 |  |  |  | 
24 | O=[N+]([O-])C(=C1Nc2ccccc2N1)C(Cl)=C(Cl)Cl | > 100 | > 100 | > 100 | > 100 | > 100 | > 100 | > 100 |  |  |  | 
25 | CCOC(=O)Cn1nc2ccc(Nc3nc4ccccc4nc3C(=O)OCC)cc2n1 | > 100 | > 100 | > 100 | > 100 | > 100 | > 100 | > 100 |  |  |  | 
26 | OC[C@H]1CC(c2nn[nH]n2)[C@H](O)[C@@H]1O (stereo partly specified) |  | > 100 | > 100 | > 100 |  | > 100 |  |  |  |  | 
27 | N#Cc1c(N2CCOCC2)ncn(-c2ccccc2)c1=O | > 100 | > 100 | > 100 |  | > 100 | > 100 | > 100 |  |  |  | 
28 | CN1N=C(c2ccncc2)OC1c1ccc(Cl)c(Cl)c1 (stereo unspecified) | > 100 | > 100 | > 100 | > 100 | > 100 | > 100 | > 100 |  |  |  | 
29 | O=C1c2c(Br)sc(Br)c2[C@H]2NC(=S)O[C@@H]12 | 33.4 | 45.5 | 11.3 | 30.2 | 31.3 | 24.5 | 26.7 |  |  |  | 
30 | CCCCCCCCCCCCCCCCCCNc1ccn(C2OC(CO)C(OP(=O)(O)OCC3CCC(n4ccc(N)nc4=O)O3)C2O)c(=O)n1 (stereo unspecified) | > 100 |  | > 100 | > 100 | > 100 | > 100 | > 100 |  |  |  | 
31 | COc1ccc(-c2nc3ccc(C)cc3o2)c(OC)c1 | 71.7 | 49.1 | > 86 | 77.4 | 46.5 | 35.8 | 76.1 |  |  |  | 
32 | COc1cc(CNC(=O)CCCCCCCC/C=C/Br)ccc1O | > 10 | > 10 | > 10 | > 10 | > 10 | > 10 | > 10 |  |  |  | 
33 | CC[n+]1[b-](C(C)(C)C)n(/N=C(\C)C(C)(C)C)[b-](C(C)(C)C)[n+]1CC | > 100 |  | > 100 | > 100 | > 100 | > 100 | > 100 |  |  |  | 
34 | CC[C@H](CCCCC1CC[C@@H]2CC(=O)C[C@H]12)OC (stereo partly specified) | > 100 | > 100 | > 100 | > 100 | > 100 | > 100 | > 100 |  |  |  | 
35 | CC(C)(C)SC1=CCC[C@@H](P(=O)(c2ccccc2)c2ccccc2)[C@@H]2CCC[C@@H]12 | 31.8 | 41.9 | 85.3 | 35.5 | 31.8 | 27.3 | 32.9 |  |  |  | 
36 | CNC(=O)N(CCC#N)CCN(CCN(C(=O)NC)c1ccccc1)C(=O)NC | > 100 | > 100 | > 100 |  | > 100 | > 100 | > 100 |  |  |  | 
37 | Cc1cc(S(=O)(=O)Nc2nc(N)n(C)n2)c(S)cc1Cl | > 10 | > 10 | > 10 | > 10 | > 10 | > 10 | > 10 |  |  |  | 
38 | COc1ccc(C2=C(OC(C)=O)c3cccn3-c3ccccc3S2)cc1 |  | > 10 | > 10 | > 10 | > 10 |  | > 10 |  |  |  | 
39 | CC(O[Si](C)(C)C(C)(C)C)[C@H](NC(=O)OCC(Cl)(Cl)Cl)C(=O)O (stereo partly specified) |  | > 100 | > 100 | > 100 | > 100 | > 100 |  |  |  |  | 
40 | CC(=O)OC1CC(OC2C(O)CC(OC3C(O)CC(OC4CCC5(C)C(CCC6C5CC(O)C5(C)C(C7=CC(=O)OC7)CCC65O)C4)OC3C)OC2C)OC(C)C1O (stereo unspecified) (tested in a mixture with another compound) | 0.207 |  | 0.268 | 0.119 | 0.305 | 0.039 | 0.0818 |  |  |  | 
41 | CN1c2ccccc2C2c3c(O)ccc(O)c3C=C([N+](=O)[O-])C21 (stereo unspecified) | 7.08 |  |  | 6.54 | 0.516 | 0.651 | 5.16 |  |  |  | 
42 | CCNC1CC(C(C)(C)NCC)CC=C1C (stereo unspecified) |  |  | > 100 | > 100 | > 100 | > 100 |  |  |  |  | 
